Entries after “also recorded” stand apart in the source; their conditions may differ.

The nature of data set [1]: Initial pharmacokinetics and biodistribution in CD1 mice. It counts as in vivo, mouse. To be noted: i.v., YM-01 20 mg/kg saline, YM-08 10 mg/kg 10% DMSO/saline. Here is the method:
(§1) (A) Initial pharmacokinetics and biodistribution of YM-01 and YM-08. Compounds were suspended in buffered saline (YM-01) or 10% DMSO/saline (YM-08) and injected at 20 and 10 mg/kg, respectively. YM-08 was not soluble in saline or 10% DMSO/saline at 20 mg/kg. The levels of YM-08 in the brain at 1 hr after injection could not be accurately determined because its value was outside the calibration curve. […] Results are average from data acquired from three female mice. (C) YM-08 maintains a B/P ratio of nearly 0.25 for 18 hrs.
(§2) The initial pharmacokinetics (PK) of YM-01 and YM-08 were tested in CD1 mice. […] After a single 6.6 mg/kg dose delivered i.v., the peak brain concentration of YM-08 was 4 μg/g (FIG. 7B) and the ratio in the brain:plasma (B/P) ratio was approximately 0.25 for 18 hrs (FIG. 7C). […] It is not yet clear how much tau levels need to be reduced to achieve therapeutic effects in disease models, but the area-under-the-curve (AUCinf) for YM-08 in the brain was 0.26 μg·hr/g and the AUCinf in plasma was 13.6 μg·hr/mL.

The nature of data set [2]: Solubility in dosing vehicle. Type of data set: physicochemical. Here is the method: as §1, §2
For data set [3], the target named is prokaryotic Hsp70 (DnaK) binding to denatured luciferase (Escherichia coli, UniProt P0A6Y8). As to the kind of experiment: Luciferase binding assay. It counts as biochemical. To be noted: 50 μM. Here is the method: (§3) Next, the effect of chaperone functions by binding of YM-08 to Hsp70 was investigated. […] This profile is shared with other allosteric Hsp70 inhibitors. As another test of chaperone function, the effects of the compounds on the binding of Hsp70 to a misfolded protein were measured. In previous work, MKT-077 stabilized the interaction between prokaryotic Hsp70 (DnaK) and denatured luciferase. Briefly, this assay involves immobilizing unfolded luciferase in microtiter plates and measuring binding to DnaK. […] To explore whether YM-08 might also enhance binding of Hsp70 to a more physiologically relevant substrate, binding of tau to immobilized human Hsc70 was measured.
(§4) Binding of prokaryotic Hsp70 (DnaK) to denatured luciferase was measured as previously described, in e.g., Miyata, et al., J. Biomol. Screen, 15:1211-1219 (2010). Briefly, firefly luciferase (0.2 mg/mL) was proteolyzed with trypsin and immobilized in 96-well microtiter plates. After washing, the binding of luciferase to DnaK (500 nM) was measured using an anti-DnaK antibody and HRP secondary antibody. A similar strategy was used to monitor binding of human Hsc70 to tau, as previously described in Thompson, et al., ACS Chem. Biol., 7:1677-1686 (2012).

The subject of data set [4] is MCF-7, MCF-10A and MB-MDA-231 cells. Description: MTT assays, three cell lines. Type of data set: cell-based. The conditions noted are these: range over MCF-7, MCF-10A and MB-MDA-231 cells. Here is the method: YM-08 was tested whether it might retain the anti-cancer activity of MKT-077.
Data set [5] in a line: Liver microsome stability. The conditions noted are these: human, liver microsomes. It counts as in vitro ADME.
Data set [6] deals with total and phospho-tau in wild type brain slices. Description: Tau levels in wild type brain slice cultures. Type of data set: cell-based, mouse. The protocol:
(§5) YM-08 activity in a more physiological system was tested. Brain slice cultures from transgenic mice that express mutated tau were treated for 6 hours with YM-08 and the levels of total- and pS396/404 tau measured by Western blots. […] To test whether YM-08 might selectively reduce tau after microtubule disruption, brain slices were cultured from wild type mice and treated them with YM-08 plus the microtubule destabilizer, nocodazole. […] Together, these studies add to growing evidence that Hsp70 selectively identifies tau variants that are not associated with the normal microtubule network, likely minimizing their aggregation and proteotoxicity.

Data set [7] addresses yeast Hsp70 (Ssa1p) and Hlj1p (Saccharomyces cerevisiae, UniProt P10591). Description: Single turnover ATPase assay. Type of data set: biochemical. The protocol:
as §3
Single turnover ATPase assays were performed as previously described in, e.g., Fewell, et al., J. Biol. Chem., 279:51131-51140 (2004), and Chiang, et al., Bioorg. Med. Chem., 17:1527-1533 (2009). Briefly, the yeast Hsp70, Ssa1p (about 0.2 μM), was prebound to α-[32P]ATP. The hydrolysis of ATP in the presence or absence of an equimolar amount of Hlj1 was measured by monitoring the generation of α-[32P]ADP by thin layer chromatography (TLC).

Data set [8] has as its system phospho- and total tau in brain slices from transgenic P301L tau mice (Tg4510). As to the kind of experiment: Tau levels in transgenic brain slice cultures. It counts as cell-based, mouse. The conditions noted are these: 30 and 100 μM, 6 hours. The protocol: as §5
For data set [9], the system named is stress inducible Hsp72 (HSPA1). Description: Stress response in treated HeLaC3 cell lysates. It counts as cell-based, human.
Another data set relates to MEF (C57BL/6). Description: Cell survival, MEF. To be noted: Mus musculus; tau activity screen table; read-out: MEF IC50. Type of data set: cell-based.
Data set [10] can be described thus: t1/2 in tau activity screen table. The conditions noted are these: liver microsomes; matrix not stated. Type of data set: in vitro ADME.
The target of another data set is T1, human Hsc70 (Homo sapiens, UniProt P11142).
T1 construct: made in house
Description: Binding of tau to immobilized human Hsc70. Type of data set: biochemical. Here is the method:
as §3, §4

Data set [11] relates to human 4R0N tau in HeLaC3 cells. Description: Tau levels in HeLaC3 cells by Western blot. Type of data set: cell-based. Here is the method:
To determine whether YM-08 might also accelerated tau degradation, HeLaC3 cells, which stably over-express human 4R0N tau, were treated with compound. After 24 hours, the levels of phosphorylated (p396/404) tau and total tau were measured by Western blot. […] This cellular activity is not as dramatic as that of MKT-077, which reduced tau levels by >80% at 30 μM (FIG. 4D); however, reducing tau by only about 50% is predicted to provide benefits in some AD models.

Chain of yeast Hsp70 (Ssa1p) and Hlj1p (P10591 whole entry): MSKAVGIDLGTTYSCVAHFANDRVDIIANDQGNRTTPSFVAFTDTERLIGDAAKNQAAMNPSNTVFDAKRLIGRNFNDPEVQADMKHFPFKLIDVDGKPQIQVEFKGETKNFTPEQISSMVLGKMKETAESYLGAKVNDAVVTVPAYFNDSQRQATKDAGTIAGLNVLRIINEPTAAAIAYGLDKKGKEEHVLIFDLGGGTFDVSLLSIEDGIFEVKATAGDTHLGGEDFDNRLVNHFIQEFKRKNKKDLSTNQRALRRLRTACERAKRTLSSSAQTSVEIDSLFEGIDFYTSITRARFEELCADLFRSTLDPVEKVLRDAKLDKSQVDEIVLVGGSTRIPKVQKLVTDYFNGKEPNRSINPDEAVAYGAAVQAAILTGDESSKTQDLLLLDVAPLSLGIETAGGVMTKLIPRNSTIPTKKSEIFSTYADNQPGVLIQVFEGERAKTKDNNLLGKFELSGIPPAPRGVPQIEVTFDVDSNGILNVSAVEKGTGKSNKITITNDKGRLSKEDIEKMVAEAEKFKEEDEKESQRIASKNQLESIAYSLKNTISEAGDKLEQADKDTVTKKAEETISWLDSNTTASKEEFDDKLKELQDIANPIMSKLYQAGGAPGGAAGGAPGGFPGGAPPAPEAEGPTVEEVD
T1 sequence (P11142 2-646): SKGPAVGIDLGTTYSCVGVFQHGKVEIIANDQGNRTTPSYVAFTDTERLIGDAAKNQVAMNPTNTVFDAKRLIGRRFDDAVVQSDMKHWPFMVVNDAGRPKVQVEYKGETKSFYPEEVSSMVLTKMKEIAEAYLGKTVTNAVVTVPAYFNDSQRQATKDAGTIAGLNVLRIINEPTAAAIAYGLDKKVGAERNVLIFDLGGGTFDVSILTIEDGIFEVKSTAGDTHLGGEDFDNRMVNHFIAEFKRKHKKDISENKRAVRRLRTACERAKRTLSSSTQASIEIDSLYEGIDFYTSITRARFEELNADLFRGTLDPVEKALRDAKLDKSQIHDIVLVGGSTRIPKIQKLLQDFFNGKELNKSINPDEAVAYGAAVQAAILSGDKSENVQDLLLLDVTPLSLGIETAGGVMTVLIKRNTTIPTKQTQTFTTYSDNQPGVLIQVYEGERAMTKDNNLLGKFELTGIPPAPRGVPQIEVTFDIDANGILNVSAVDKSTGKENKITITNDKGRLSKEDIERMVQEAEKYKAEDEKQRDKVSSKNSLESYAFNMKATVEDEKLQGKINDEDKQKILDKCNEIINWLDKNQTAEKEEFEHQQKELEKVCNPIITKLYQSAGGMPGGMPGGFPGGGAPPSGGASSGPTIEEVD
Chain of prokaryotic Hsp70 (DnaK) binding to denatured luciferase (P0A6Y8 whole entry): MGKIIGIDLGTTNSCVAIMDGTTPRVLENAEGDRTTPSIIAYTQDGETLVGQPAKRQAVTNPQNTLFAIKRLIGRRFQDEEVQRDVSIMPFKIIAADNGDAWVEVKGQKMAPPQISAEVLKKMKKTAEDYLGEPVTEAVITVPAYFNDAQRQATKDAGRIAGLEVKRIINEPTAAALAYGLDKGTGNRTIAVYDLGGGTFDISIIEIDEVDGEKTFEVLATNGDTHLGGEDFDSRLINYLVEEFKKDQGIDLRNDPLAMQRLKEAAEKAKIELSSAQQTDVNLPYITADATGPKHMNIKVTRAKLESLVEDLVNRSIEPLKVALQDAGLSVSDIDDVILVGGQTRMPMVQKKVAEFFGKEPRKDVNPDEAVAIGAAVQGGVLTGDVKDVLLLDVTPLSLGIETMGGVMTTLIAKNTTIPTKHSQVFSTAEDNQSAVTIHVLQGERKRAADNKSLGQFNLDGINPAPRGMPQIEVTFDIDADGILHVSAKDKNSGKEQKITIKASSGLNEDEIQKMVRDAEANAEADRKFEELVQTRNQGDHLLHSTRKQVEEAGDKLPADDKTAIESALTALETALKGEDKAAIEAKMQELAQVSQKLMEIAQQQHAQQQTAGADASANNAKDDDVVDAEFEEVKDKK

In the case of `CCn1c(=O)/c(=C2\Sc3ccccc3N2C)s/c1=C\c1ccccn1` [YM-08, (2Z,5E)-3-ethyl-5-(3-methylbenzo[d]thiazol-2(3H)-ylidene)-2-(pyridin-2-ylmethylene)thiazolidin-4-one], in data set [1] (0.16 and 1 hrs), the kidney distribution result is given as “reduced retention in the kidney”. Further, the brain penetration result in [1] (0.16 hrs) is “abundant in the brain”. In [2], the “solubility in saline or 10% DMSO/saline” value is recorded as “not soluble; also recorded: only marginally soluble”. For the same compound, the “enhancement of DnaK binding to denatured luciferase” value in data set [3] is “about 30%”. For the same compound, the EC50 (usually the concentration giving half of the maximal effect) in data set [4] fell in the range of 7.8 to 10.5 µM. The half-life (commonly the time in which the quantity being followed falls by half) in data set [5] was 2 to 4 min; in [5] (figure legend), roughly 4 min; in data set [10] it was less than 3 min. For the same compound, the “tau levels, YM-08 alone” value in data set [6] is reported as “unchanged; also recorded: did not significantly reduce tau levels”. For the same compound, in data set [6] (microtubule disruption), the “total and phospho-tau levels, plus nocodazole” value is “decreased levels of both total and phospho-tau”. Besides, the “ATP turnover, Hlj1-stimulated ATPase activity” value in data set [7] (Ssa1 plus Hlj1) is reported as “partially inhibited”. Besides, in data set [7] (without Hlj1), the “intrinsic ATPase activity of Ssa1” value is listed as “minimal effect”. The phospho-tau level entry in data set [8] is “reduced phospho-tau”. Besides, the “stress response (Hsp72 levels)” value in [9] is listed as “did not induce a stress response”. Also, the IC50 (commonly the point on the concentration scale where inhibition reaches its midpoint) in the data set with MEF (C57BL/6) was 4.2 ± 0.24 µM. For the same compound, at human Hsc70, the “affinity of chaperone for tau substrate” value is “enhanced the affinity”. Besides, the “anti-tau activity in cells” value in data set [11] is “reduced phospho (p396/404) and total tau”. Moreover, the “decrease of pS396/404 tau level” value in [11] (30 μM, 24 hours) is given as “about 40%”. The “decrease of total tau level” value in [11] (30 μM, 24 hours) is reported as “about 60%”.
